Measurements from patent US20150344540A1, “NOVEL GLP-1 RECEPTOR AGONISTS WITH CHOLESTEROL EFFLUX ACTIVITY” (NOVO NORDISK A/S, priority 2012, published 2015).
Where a SMILES comes first, the peptide text is derived from it. [ ]: non-standard residue; d: D form. Aib = CC(C)(N)C(=O)O

Test system: Mouse monocyte/macrophage cell line, RAW 264.7
Assay: Cholesterol efflux assay (3H-cholesterol, macrophage cell line)
Assay type: cell-based
Conditions: RAW 264.7, 4 hrs incubation, 0.1% human serum albumin; for 4 h Cholesterol Efflux Emax: ABCA1-mediated efflux; for EC50: read-out: 4 h Cholesterol Efflux EC50, ABCA1-mediated efflux (CPT-cAMP induced minus non-induced)

CC[C@H](C)[C@H](NC(=O)[C@H](Cc1ccccc1)NC(=O)[C@H](CCCCN)NC(=O)[C@H](CCCCN)NC(=O)[C@@H](NC(=O)[C@H](C)NC(=O)[C@H](CCC(=O)O)NC(=O)CNC(=O)[C@H](CCC(=O)O)NC(=O)[C@H](CC(C)C)NC(=O)[C@H](Cc1ccc(O)cc1)NC(=O)[C@H](CO)NC(=O)[C@H](CO)NC(=O)[C@@H](NC(=O)[C@H](CC(=O)O)NC(=O)[C@H](CO)NC(=O)[C@@H](NC(=O)[C@H](Cc1ccccc1)NC(=O)[C@@H](NC(=O)CNC(=O)[C@H](CCC(=O)O)NC(=O)C(C)(C)NC(=O)[C@@H](N)Cc1c[nH]cn1)[C@@H](C)O)[C@@H](C)O)C(C)C)C(C)C)C(=O)N[C@@H](C)C(=O)N[C@@H](Cc1c[nH]c2ccccc12)C(=O)N[C@@H](CC(C)C)C(=O)N[C@H](C(=O)N[C@@H](CCC(=O)O)C(=O)N[C@@H](CCCCN)C(=O)NC(C)(C)C(=O)N[C@@H](CCCCN)C(=O)N[C@@H](CCC(=O)O)C(=O)N[C@@H](Cc1ccccc1)C(=O)N[C@@H](CC(C)C)C(N)=O)C(C)C [Compound 51, [Aib8,Glu23,Val25,Lys27,Glu34,Lys35,Aib36,Lys37]-GLP-1-(7-37)-peptidyl-Glu-Phe-Leu amide] (H-H[Aib]EGTFTSDVSSYLEGEAVKKFIAWLVEK[Aib]KEFL-NH2; N-terminus assumed)
4 h Cholesterol Efflux Emax: 117%
EC50: 440 nM

CC[C@H](C)[C@H](NC(=O)[C@H](Cc1ccccc1)NC(=O)[C@H](CCC(=O)O)NC(=O)[C@H](CCCCN)NC(=O)[C@@H](NC(=O)[C@H](C)NC(=O)[C@H](CCC(=O)O)NC(=O)CNC(=O)[C@H](CCC(=O)O)NC(=O)[C@H](CC(C)C)NC(=O)[C@H](Cc1ccc(O)cc1)NC(=O)[C@H](CO)NC(=O)[C@H](CO)NC(=O)[C@@H](NC(=O)[C@H](CC(=O)O)NC(=O)[C@H](CO)NC(=O)[C@@H](NC(=O)[C@H](Cc1ccccc1)NC(=O)[C@@H](NC(=O)CNC(=O)[C@H](CCC(=O)O)NC(=O)C(C)(C)NC(=O)[C@@H](N)Cc1c[nH]cn1)[C@@H](C)O)[C@@H](C)O)C(C)C)C(C)C)C(=O)N[C@@H](C)C(=O)N[C@@H](Cc1c[nH]c2ccccc12)C(=O)N[C@@H](CC(C)C)C(=O)N[C@H](C(=O)N[C@@H](CCC(=O)O)C(=O)N[C@@H](CCCCN)C(=O)NC(C)(C)C(=O)N[C@@H](CCCCN)C(=O)N[C@@H](CCC(=O)O)C(=O)N[C@@H](Cc1ccccc1)C(=O)N[C@@H](Cc1c[nH]cn1)C(N)=O)C(C)C [Compound 22, [Aib8,Glu23,Val25,Glu34,Lys35,Aib36,Lys37]-GLP-1-(7-37)-peptidyl-Glu-Phe-His amide] (H-H[Aib]EGTFTSDVSSYLEGEAVKEFIAWLVEK[Aib]KEFH-NH2)
4 h Cholesterol Efflux Emax: 106%

CC[C@H](C)[C@H](NC(=O)[C@H](Cc1ccccc1)NC(=O)[C@H](CCC(=O)O)NC(=O)[C@H](CCCNC(=N)N)NC(=O)[C@@H](NC(=O)[C@H](C)NC(=O)[C@H](CCC(=O)O)NC(=O)[C@H](CCC(=O)O)NC(=O)[C@H](CCC(=O)O)NC(=O)[C@H](CCSC)NC(=O)[C@H](CCC(N)=O)NC(=O)[C@H](CCCCN)NC(=O)[C@H](CO)NC(=O)[C@H](CC(C)C)NC(=O)[C@H](CC(=O)O)NC(=O)[C@H](CO)NC(=O)[C@@H](NC(=O)[C@H](Cc1ccccc1)NC(=O)[C@@H](NC(=O)CNC(=O)[C@H](CCC(=O)O)NC(=O)C(C)(C)NC(=O)[C@@H](N)Cc1c[nH]cn1)[C@@H](C)O)[C@@H](C)O)C(C)C)C(=O)N[C@@H](CCC(=O)O)C(=O)N[C@@H](Cc1c[nH]c2ccccc12)C(=O)N[C@@H](CC(C)C)C(=O)N[C@@H](CCCCN)C(=O)N[C@@H](CC(N)=O)C(=O)N[C@@H](CCCCN)C(=O)NCC(=O)N[C@@H](CC(C)C)C(=O)N[C@@H](CCC(=O)O)C(=O)N[C@@H](Cc1ccccc1)C(=O)N[C@@H](CC(C)C)C(=O)N[C@@H](CCC(=O)O)C(=O)N[C@@H](CC(C)C)C(=O)N[C@@H](CC(C)C)C(N)=O [Compound 33, [Aib2,Glu21,Lys29,Leu31,Glu32,Phe33,Leu34,Glu35,Leu36,Leu371-Exendin-4-(1-37)-peptide amide] (H-H[Aib]EGTFTSDLSKQMEEEAVREFIEWLKNKGLEFLELL-NH2; N-terminus assumed)
4 h Cholesterol Efflux Emax: 87%

CC[C@H](C)[C@H](NC(=O)[C@H](Cc1ccccc1)NC(=O)[C@H](CCC(=O)O)NC(=O)[C@H](CCCCN)NC(=O)[C@@H](NC(=O)[C@H](C)NC(=O)[C@H](CCC(=O)O)NC(=O)[C@@H]1CCCN1C(=O)[C@H](CCC(=O)O)NC(=O)[C@H](CC(C)C)NC(=O)[C@H](Cc1ccc(O)cc1)NC(=O)[C@H](CO)NC(=O)[C@H](CO)NC(=O)[C@@H](NC(=O)[C@H](CC(=O)O)NC(=O)[C@H](CO)NC(=O)[C@@H](NC(=O)[C@H](Cc1ccccc1)NC(=O)[C@@H](NC(=O)CNC(=O)[C@H](CCC(=O)O)NC(=O)C(C)(C)NC(=O)[C@@H](N)Cc1c[nH]cn1)[C@@H](C)O)[C@@H](C)O)C(C)C)C(C)C)C(=O)N[C@@H](C)C(=O)N[C@@H](Cc1c[nH]c2ccccc12)C(=O)N[C@@H](CC(C)C)C(=O)N[C@H](C(=O)N[C@@H](CCC(=O)O)C(=O)N[C@@H](CCCCN)C(=O)NC(C)(C)C(=O)N[C@@H](CCCCN)C(=O)N[C@@H](CCC(=O)O)C(=O)N[C@@H](Cc1ccccc1)C(=O)N[C@@H](CC(C)C)C(N)=O)C(C)C [Compound 101, [Aib8,Pro22,Glu23,Val25,Glu34,Lys35,Aib36,Lys37]-GLP-1-(7-37)-peptidyl-Glu-Phe-Leu amide] (H-H[Aib]EGTFTSDVSSYLEPEAVKEFIAWLVEK[Aib]KEFL-NH2; N-terminus assumed)
4 h Cholesterol Efflux Emax: 92%
EC50: 280 nM

CC[C@H](C)[C@H](NC(=O)[C@H](Cc1ccccc1)NC(=O)[C@H](CCC(=O)O)NC(=O)[C@H](CCCCN)NC(=O)[C@@H](NC(=O)[C@H](CCCCN)NC(=O)[C@H](CCC(=O)O)NC(=O)CNC(=O)[C@H](CCC(=O)O)NC(=O)[C@H](CC(C)C)NC(=O)[C@H](Cc1ccc(O)cc1)NC(=O)[C@H](CO)NC(=O)[C@H](CO)NC(=O)[C@@H](NC(=O)[C@H](CC(=O)O)NC(=O)[C@H](CO)NC(=O)[C@@H](NC(=O)[C@H](Cc1ccccc1)NC(=O)[C@@H](NC(=O)CNC(=O)[C@H](CCC(=O)O)NC(=O)C(C)(C)NC(=O)[C@@H](N)Cc1c[nH]cn1)[C@@H](C)O)[C@@H](C)O)C(C)C)C(C)C)C(=O)N[C@@H](CCC(=O)O)C(=O)N[C@@H](Cc1c[nH]cn1)C(=O)N[C@@H](CC(C)C)C(=O)N[C@H](C(=O)N[C@@H](CCC(=O)O)C(=O)N[C@@H](CCCCN)C(=O)NC(C)(C)C(=O)N[C@@H](CCCCN)C(=O)N[C@@H](CCC(=O)O)C(=O)N[C@@H](Cc1ccccc1)C(=O)N[C@@H](CC(C)C)C(N)=O)C(C)C [Compound 71, [Aib8,Glu23,Lys24,Val25,Glu30,His31,Glu34,Lys35,Aib36,Lys37]-GLP-1-(7-37)-peptidyl-Glu-Phe-Leu amide] (H-H[Aib]EGTFTSDVSSYLEGEKVKEFIEHLVEK[Aib]KEFL-NH2)
4 h Cholesterol Efflux Emax: 130%

CC[C@H](C)[C@H](NC(=O)[C@H](Cc1ccccc1)NC(=O)[C@H](CCC(=O)O)NC(=O)[C@H](CCCCN)NC(=O)[C@@H](NC(=O)[C@H](C)NC(=O)[C@H](CCC(=O)O)NC(=O)[C@H](CCC(=O)O)NC(=O)[C@H](CCC(=O)O)NC(=O)[C@H](CC(C)C)NC(=O)[C@H](Cc1ccc(O)cc1)NC(=O)[C@H](CO)NC(=O)[C@H](CO)NC(=O)[C@@H](NC(=O)[C@H](CC(=O)O)NC(=O)[C@H](CO)NC(=O)[C@@H](NC(=O)[C@H](Cc1ccccc1)NC(=O)[C@@H](NC(=O)CNC(=O)[C@H](CCC(=O)O)NC(=O)C(C)(C)NC(=O)[C@@H](N)Cc1c[nH]cn1)[C@@H](C)O)[C@@H](C)O)C(C)C)C(C)C)C(=O)N[C@@H](C)C(=O)N[C@@H](Cc1c[nH]c2ccccc12)C(=O)N[C@@H](CC(C)C)C(=O)N[C@H](C(=O)N[C@@H](CCC(=O)O)C(=O)N[C@@H](CCCCN)C(=O)N[C@H](C(=O)N[C@@H](CCCCN)C(=O)N[C@@H](CCC(=O)O)C(=O)N[C@@H](CC(C)C)C(=O)N[C@@H](CC(C)C)C(N)=O)C(C)C)C(C)C [Compound 109, [Aib8,Glu22,Glu23,Val25,Glu34,Lys35,Val36,Lys37]-GLP-1-(7-37)-peptidyl-Glu-Leu-Leu amide] (H-H[Aib]EGTFTSDVSSYLEEEAVKEFIAWLVEKVKELL-NH2)
4 h Cholesterol Efflux Emax: 99%

CC[C@H](C)[C@H](NC(=O)[C@H](Cc1ccccc1)NC(=O)[C@H](CCC(=O)O)NC(=O)[C@H](CCCCN)NC(=O)[C@@H](NC(=O)[C@H](C)NC(=O)[C@H](CCC(=O)O)NC(=O)CNC(=O)[C@H](CCC(=O)O)NC(=O)[C@H](CC(C)C)NC(=O)[C@H](Cc1ccc(O)cc1)NC(=O)[C@H](CO)NC(=O)[C@H](CO)NC(=O)[C@@H](NC(=O)[C@H](CC(=O)O)NC(=O)[C@H](CO)NC(=O)[C@@H](NC(=O)[C@H](Cc1ccccc1)NC(=O)[C@@H](NC(=O)CNC(=O)[C@H](CCC(=O)O)NC(=O)C(C)(C)NC(=O)[C@@H](N)Cc1c[nH]cn1)[C@@H](C)O)[C@@H](C)O)C(C)C)C(C)C)C(=O)N[C@@H](C)C(=O)N[C@@H](Cc1c[nH]c2ccccc12)C(=O)N[C@@H](CC(C)C)C(=O)N[C@H](C(=O)N[C@@H](CCC(=O)O)C(=O)N[C@@H](CCCCN)C(=O)N[C@H](C(=O)N[C@@H](CCCCN)C(=O)N[C@@H](CCC(=O)O)C(=O)N[C@@H](CC(C)C)C(=O)N[C@@H](CC(C)C)C(N)=O)C(C)C)C(C)C [Compound 119, [Aib8,Glu23,Val25,Glu34,Lys35,Val36,Lys37]-GLP-1-(7-37)-peptidyl-Glu-Leu-Leu amide] (H-H[Aib]EGTFTSDVSSYLEGEAVKEFIAWLVEKVKELL-NH2)
4 h Cholesterol Efflux Emax: 117%
